PubChem BioAssay AID292 (DTP/NCI, 2004)
Values joined by “and” are separate entries in the source; they are usually repeats but may differ in a detail not shown here. Equal entries are not always repeated. Inconclusive results and toxic doses are left out. The calls were made as follows: active = survival T/C of 150% or more; inactive = T/C below 125% in these data.

Tested on: B6C3F1 mice, ip Sarcoma M5076, median survival T/C
Assay: NCI In Vivo Anticancer Drug Screen. Data for tumor model Sarcoma M5076 (intraperitoneal) in B6C3F1 mice
Conditions: endpoint: median survival time, higher = longer survival
Method in brief: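 Survival measured in treated (T) and vehicle control (C) mice with transplantable tumour; result given as T divided by C.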

[1] = dose: 50.0 mg/kg/injection, schedule: Q04DX004 (ip), vehicle: saline
[2] = dose: 100.0 mg/kg/injection, schedule: Q04DX004 (ip), vehicle: saline
[3] = dose: 200.0 mg/kg/injection, schedule: Q04DX004 (ip), vehicle: saline
[4] = dose: 1.0 mg/kg/injection, schedule: Q04DX004 (ip), vehicle: water
[5] = dose: 2.0 mg/kg/injection, schedule: Q04DX004 (ip), vehicle: water
[6] = dose: 25.0 mg/kg/injection, schedule: Q04DX004 (ip), vehicle: saline
[7] = dose: 50.0 mg/kg/injection, schedule: Q04DX004 (ip), vehicle: Klucel (hydroxypropylcellulose) (HPC)
[8] = dose: 100.0 mg/kg/injection, schedule: Q04DX004 (ip), vehicle: Klucel (hydroxypropylcellulose) (HPC)
[9] = dose: 200.0 mg/kg/injection, schedule: Q04DX004 (ip), vehicle: Klucel (hydroxypropylcellulose) (HPC)
[10] = dose: 18.0 mg/kg/injection, schedule: Q04DX004 (ip), vehicle: saline
[11] = dose: 30.0 mg/kg/injection, schedule: Q04DX004 (ip), vehicle: saline
[12] = dose: 50.0 mg/kg/injection, schedule: Q04DX004 (ip), vehicle: saline with Tween-80
[13] = dose: 12.5 mg/kg/injection, schedule: Q04DX004 (ip), vehicle: Klucel (hydroxypropylcellulose) (HPC)
[14] = dose: 25.0 mg/kg/injection, schedule: Q04DX004 (ip), vehicle: Klucel (hydroxypropylcellulose) (HPC)
[15] = dose: 100.0 mg/kg/injection, schedule: Q04DX004 (ip), vehicle: saline with Tween-80
[16] = dose: 200.0 mg/kg/injection, schedule: Q04DX004 (ip), vehicle: saline with Tween-80
[17] = dose: 400.0 mg/kg/injection, schedule: Q04DX004 (ip), vehicle: saline with Tween-80

Measured: T/C

CCCS(=N)(=O)CCC(N)C(=O)O (stereo not drawn)
inactive: [1] 103 % of control | [2] 105 % of control | [3] 102 % of control | dose: 400.0 mg/kg/injection, schedule: Q04DX004 (ip), vehicle: saline 102 % of control | dose: 800.0 mg/kg/injection, schedule: Q04DX004 (ip), vehicle: saline 105 % of control

CC(C)(C[NH-])C[NH-].[Cl][Pt+2][Cl]
active: [4] 157 % of control and 174 % of control | [5] 181 % of control and 198 % of control
inactive: dose: 0.25 mg/kg/injection, schedule: Q04DX004 (ip), vehicle: water 116 % of control
90 % of control and 241 % of control: dose: 4.0 mg/kg/injection, schedule: Q04DX004 (ip), vehicle: water

Cc1ccc(C2=CSC3=NCCN23)cc1Cl
inactive: dose: 3.0 mg/kg/injection, schedule: Q04DX004 (ip), vehicle: saline 103 % of control | dose: 6.0 mg/kg/injection, schedule: Q04DX004 (ip), vehicle: saline 107 % of control | dose: 12.0 mg/kg/injection, schedule: Q04DX004 (ip), vehicle: saline 104 % of control | dose: 24.0 mg/kg/injection, schedule: Q04DX004 (ip), vehicle: saline 100 % of control | [6] 104 % of control | [1] 96 % of control

CC1=C[P+](c2ccccc2)(c2ccccc2)C=C(c2ccccc2)O1
inactive: dose: 1.25 mg/kg/injection, schedule: Q04DX004 (ip), vehicle: saline + alcohol 110 % of control | dose: 5.0 mg/kg/injection, schedule: Q04DX004 (ip), vehicle: saline + alcohol 110 % of control | dose: 10.0 mg/kg/injection, schedule: Q04DX004 (ip), vehicle: saline + alcohol 117 % of control

CN1C2C=CC(=O)C1C1C(=O)N(c3ccccc3)C(=O)C12 (stereo not drawn)
inactive: [7] 102 % of control | [8] 96 % of control | [9] 118 % of control

CS(=O)(=O)CS(=O)(=O)OCCF
active: dose: 12.5 mg/kg/injection, schedule: Q04DX004 (ip), vehicle: saline 152 % of control | [10] 176 % of control | [6] 189 % of control and 240 % of control | [11] 244 % of control | [1] 234 % of control and 262 % of control

CC#CCOCC(O)CCl (stereo not drawn)
inactive: [1] 99 % of control | dose: 50.0 mg/kg/injection, schedule: Q04DX004 (ip), vehicle: suspension in saline 102 % of control | [2] 98 % of control | dose: 100.0 mg/kg/injection, schedule: Q04DX004 (ip), vehicle: suspension in saline 102 % of control | [3] 103 % of control | dose: 200.0 mg/kg/injection, schedule: Q04DX004 (ip), vehicle: suspension in saline 102 % of control | dose: 400.0 mg/kg/injection, schedule: Q04DX004 (ip), vehicle: suspension in saline 100 % of control

CCOC(=O)c1cc(-c2ccccc2)c(OC)c(=O)nc1-c1ccccc1
inactive: [12] 89 % of control

CC/C(=C(\c1ccccc1)c1ccc(OCCN(C)C)cc1)c1ccccc1
inactive: [13] 101 % of control | [14] 107 % of control | [7] 89 % of control and 103 % of control

O=c1[nH]cnc2n[nH]nc12
inactive: dose: 75.0 mg/kg/injection, schedule: Q04DX004 (ip), vehicle: Klucel (hydroxypropylcellulose) (HPC) 104 % of control | dose: 150.0 mg/kg/injection, schedule: Q04DX004 (ip), vehicle: Klucel (hydroxypropylcellulose) (HPC) 94 % of control | dose: 300.0 mg/kg/injection, schedule: Q04DX004 (ip), vehicle: Klucel (hydroxypropylcellulose) (HPC) 97 % of control | dose: 600.0 mg/kg/injection, schedule: Q04DX004 (ip), vehicle: Klucel (hydroxypropylcellulose) (HPC) 95 % of control

O=S1ON=C(C2CCC(C3=NOS(=O)O3)C2)O1 (stereo not drawn)
inactive: dose: 25.0 mg/kg/injection, schedule: Q04DX004 (ip), vehicle: saline with Tween-80 108 % of control | [12] 102 % of control | [15] 103 % of control | [16] 87 % of control

O=S(=O)(c1cccc(N=C=S)c1)c1cccc(N=C=S)c1
inactive: [13] 99 % of control | [14] 94 % of control | [7] 103 % of control | [8] 99 % of control

CC(=O)OC1C(O)C(C)OC(OC2C(OC(=O)C3CCC4C(C3)OC3(CC(OC(=O)/C=C/c5ccccc5)C(C)CO3)C43CO3)OC(C)C(O)C2OC(C)=O)C1O (stereo not drawn)
active: dose: 36.0 mg/kg/injection, schedule: Q04DX004 (ip), vehicle: saline + alcohol 157 % of control
inactive: dose: 1.0 mg/kg/injection, schedule: Q01DX009 (ip), vehicle: saline + alcohol 100 % of control | dose: 1.0 mg/kg/injection, schedule: Q04DX004 (ip), vehicle: saline + alcohol 107 % of control | dose: 2.0 mg/kg/injection, schedule: Q01DX009 (ip), vehicle: saline + alcohol 105 % of control | dose: 2.0 mg/kg/injection, schedule: Q04DX004 (ip), vehicle: saline + alcohol 112 % of control | dose: 4.0 mg/kg/injection, schedule: Q01DX009 (ip), vehicle: saline + alcohol 113 % of control | dose: 4.0 mg/kg/injection, schedule: Q04DX004 (ip), vehicle: saline + alcohol 116 % of control | dose: 8.0 mg/kg/injection, schedule: Q01DX009 (ip), vehicle: saline + alcohol 121 % of control | dose: 12.96 mg/kg/injection, schedule: Q04DX004 (ip), vehicle: saline + alcohol 123 % of control | dose: 21.6 mg/kg/injection, schedule: Q04DX004 (ip), vehicle: saline + alcohol 115 % of control | dose: 60.0 mg/kg/injection, schedule: Q04DX004 (ip), vehicle: saline + alcohol 116 % of control | dose: 100.0 mg/kg/injection, schedule: Q04DX004 (ip), vehicle: saline + alcohol 115 % of control

COC(=O)Nc1ccc(Cc2ccc(NC(=O)OC)cc2)cc1
inactive: [12] 95 % of control | [15] 93 % of control and 94 % of control | [16] 103 % of control and 119 % of control
active: [17] 153 % of control | dose: 600.0 mg/kg/injection, schedule: Q04DX004 (ip), vehicle: saline with Tween-80 160 % of control

O=C1c2c(O)ccc(O)c2C(=O)c2c(NCCNCCO)ccc(NCCNCCO)c21
active: dose: 0.25 mg/kg/injection, schedule: Q04DX005 (ip), vehicle: saline 319 % of control | dose: 0.5 mg/kg/injection, schedule: Q04DX004 (ip), vehicle: water 161 % of control | dose: 0.5 mg/kg/injection, schedule: Q04DX005 (ip), vehicle: saline 319 % of control | [4] 174 % of control | dose: 1.0 mg/kg/injection, schedule: Q04DX005 (ip), vehicle: saline 319 % of control | [5] 224 % of control | dose: 2.0 mg/kg/injection, schedule: Q04DX005 (ip), vehicle: saline 298 % of control

N#CC1C(=O)NC(=O)C(C#N)C1c1cccc(O)c1 (stereo not drawn)
inactive: [7] 95 % of control | [8] 102 % of control | [9] 99 % of control | dose: 400.0 mg/kg/injection, schedule: Q04DX004 (ip), vehicle: Klucel (hydroxypropylcellulose) (HPC) 95 % of control | dose: 800.0 mg/kg/injection, schedule: Q04DX004 (ip), vehicle: Klucel (hydroxypropylcellulose) (HPC) 109 % of control

NNC(=O)c1ccncc1
inactive: [6] 102 % of control | [1] 102 % of control | [2] 95 % of control | [3] 106 % of control

O=c1[nH]c(=O)n(C2CC(O)C(CO)O2)cc1C(F)(F)F (stereo not drawn)
inactive: [15] 113 % of control and 114 % of control | [16] 109 % of control and 113 % of control | [17] 110 % of control and 112 % of control | dose: 800.0 mg/kg/injection, schedule: Q04DX004 (ip), vehicle: saline with Tween-80 116 % of control | dose: 1600.0 mg/kg/injection, schedule: Q04DX004 (ip), vehicle: saline with Tween-80 116 % of control

O=NNc1ccccn1
inactive: dose: 3.13 mg/kg/injection, schedule: Q04DX004 (ip), vehicle: saline 109 % of control | dose: 6.25 mg/kg/injection, schedule: Q04DX004 (ip), vehicle: saline 117 % of control
active: [10] 172 % of control | [6] 160 % of control | [11] 156 % of control | [1] 184 % of control

COc1ccccc1-n1cc[n+](C)c1/C=N/O
inactive: [6] 101 % of control | [1] 101 % of control

CC(C)(C)c1cc2c3c(c1)Oc1cc(C(C)(C)C)cc4c1C3(O)c1c(cc(C(C)(C)C)cc1O4)O2
inactive: dose: 6.25 mg/kg/injection, schedule: Q04DX004 (ip), vehicle: Klucel (hydroxypropylcellulose) (HPC) 111 % of control | dose: 9.0 mg/kg/injection, schedule: Q04DX004 (ip), vehicle: Klucel (hydroxypropylcellulose) (HPC) 113 % of control | [13] 113 % of control
